According to US7012086B1, “Treatment of retrovirus induced derangements with niacin compounds” (The Foundation For Innovative Therapies, Inc., priority 2000, dated 2006):

What was measured:
HIV infected persons [1] = assay: Clinical trial of niacin (nicotinamide) in HIV infected persons: plasma amino acids by HPLC, tolerability; assay type: in vivo, human
Protocol: Four HIV infected persons participated in a trial of niacin in the form of nicotinamide. The participants were at various stages of their HIV infection as judged by their CD4 counts which ranged from 0 to 620 [see table 1]. […] Two of the participants had known co-infections infections typical of HIV infected persons. Each participant took 3 grams of nicotinamide per day for 2 months. […] Each participant's plasma tryptophan was measured prior to treatment and at the end of treatment [see table 3]. […] All amino acid concentrations were measured by High Performance Liquid Chromotography [HPLC].

HIV infected persons [2] = conditions: cited from earlier work

Structure (SMILES): NC(=O)c1cccnc1 [nicotinamide]
- adverse side effects of treatment (HIV infected persons [1]; 3 grams of nicotinamide per day for 2 months, four HIV infected persons): not associated with any adverse side effects
- average increase of plasma tryptophan of all participants (HIV infected persons [1]; 3 grams of nicotinamide per day orally for 2 months, four HIV infected persons, before vs end of treatment, p=0.0112 (paired t-test)): 43.9%

Structure (SMILES): O=C(O)c1cccnc1 [Niacin]
- tryptophan status (plasma tryptophan), in words (HIV infected persons [1]; four patients across the range of baseline CD4 count, antiviral medication and co-infections): improve tryptophan status in all four patients

Structure (SMILES): Cc1cn([C@H]2C[C@H](N=[N+]=[N-])[C@@H](CO)O2)c(=O)[nH]c1=O [Zidovudine, zidovudine]
- effect on plasma tryptophan in HIV infected persons (HIV infected persons [2]; HIV infected persons): replete plasma tryptophan
- side effects (HIV infected persons [2]; in vivo): headache, nausea, and bone marrow suppression
